Assay results from US11724992B2 (Novartis AG, priority 2017, dated 2023).
Like-named read-outs stand apart in the source and are kept apart here.

Test system: IL-1β production in PMA-differentiated THP-1 cells
Experiment: IL-1β production in PMA-differentiated THP-1 cells stimulated with gramicidin (hTHP-1 assay, 2% fetal bovine serum; Procedures 1-3)
Assay type: cell-based, human
Settings: class symbols, read-out: hTHP-1 IC50 (Average IC50 of compounds in hTHP-1 assay)
Method: The following protocol is suitable for testing the activity of the compounds disclosed herein.
Procedure 1: IL-1β Production in PMA-Differentiated THP-1 Cells Stimulated with Gramicidin
THP-1 cells were purchased from the American Type Culture Collection and sub-cultured according to instructions from the supplier. Cells were cultured in complete RPMI 1640 (containing 10% heat inactivated FBS, penicillin (100 units/ml) and streptomycin (100 μg/ml)), and maintained in log phase prior to experimental setup. Prior to the experiment, compounds were dissolved in dimethyl sulfoxide (DMSO) to generate a 30 mM stock. The compound stock was first pre-diluted in DMSO to 3, 0.34, 0.042 and 0.0083 mM intermediate concentrations and subsequently spotted using Echo550 liquid handler into an empty 384-well assay plate to achieve desired final concentration (e.g. 100, 33, 11, 3.7, 1.2, 0.41, 0.14, 0.046, 0.015, 0.0051, 0.0017 μM). DMSO was backfilled in the plate to achieve a final DMSO assay concentration of 0.37%. The plate was then sealed and stored at room temperature until required.
THP-1 cells were treated with PMA (Phorbol 12-myristate 13-acetate) (20 ng/ml) for 16-18 hours. On the day of the experiment the media was removed and adherent cells were detached with trypsin for 5 minutes. Cells were then harvested, washed with complete RPMI 1640, spun down, and resuspended in RPMI 1640 (containing 2% heat inactivated FBS, penicillin (100 units/ml) and streptomycin (100 μg/ml). The cells were plated in the 384-well assay plate containing the spotted compounds at a density of 50,000 cells/well (final assay volume 50 μl). Cells were incubated with compounds for 1 hour and then stimulated with gramicidin (5 μM) (Enzo) for 2 hours. Plates were then centrifuged at 340 g for 5 min. Cell free supernatant (40 μL) was collected using a 96-channel PlateMaster (Gilson) and the production of IL-1β was evaluated by HTRF (cisbio). The plates were incubated for 18 h at 4° C. and read using the preset HTRF program (donor emission at 620 nm, acceptor emission at 668 nm) of the SpectraMax i3x spectrophotometer (Molecular Devices, software SoftMax 6). A vehicle only control and a dose titration of CRID3 (100-0.0017 μM) were run concurrently with each experiment.
Procedure 2: IL-1β Production in PMA-Differentiated THP-1 Cells Stimulated with Gramicidin
THP-1 cells were purchased from the American Type Culture Collection and sub-cultured according to instructions from the supplier. Prior to experiments, cells were cultured in complete RPMI 1640 (containing 10% heat inactivated FBS, penicillin (100 units/ml) and streptomycin (100 μg/ml)), and maintained in log phase prior to experimental setup. Prior to the experiment THP-1 were treated with PMA (Phorbol 12-myristate 13-acetate) (20 ng/ml) for 16-18 hours. Compounds were dissolved in dimethyl sulfoxide (DMSO) to generate a 30 mM stock. On the day of the experiment the media was removed and adherent cells were detached with trypsin for 5 minutes. Cells were then harvested, washed with complete RPMI 1640, spun down, resuspended in RPMI 1640 (containing 2% heat inactivated FBS, penicillin (100 units/ml) and streptomycin (100 μg/ml). The cells were plated in a 384-well plate at a density of 50,000 cells/well (final assay volume 50 μl). Compounds were first dissolved in assay medium to obtain a 5× top concentration of 500 μM. 10 step dilutions (1:3) were then undertaken in assay medium containing 1.67% DMSO. 5× compound solutions were added to the culture medium to achieve desired final concentration (e.g. 100, 33, 11, 3.7, 1.2, 0.41, 0.14, 0.046, 0.015, 0.0051, […]). Final DMSO concentration was at 0.37%. Cells were incubated with compounds for 1 hour and then stimulated with gramicidin (5 μM) (Enzo) for 2 hours. Plates were then centrifuged at 340 g for 5 min. Cell free supernatant (40 μL) was collected using a 96-channel PlateMaster (Gilson) and the production of IL-1β was evaluated by HTRF (cisbio). […]

[1] = hTHP-1 assay containing 2% fetal bovine serum

Structure (SMILES) | IC50 [1] [nM] | IC50 (Homo sapiens, THP-1, hTHP-1 assay containing 2% fetal bovine serum) [nM]
CN(C)Cc1ccc(S(N)(=O)=NC(=O)Nc2c3c(cc4c2CCC4)CCC3)cc1 (single isomer, unassigned) [Example 117] | 40 to 200 | 
CC(C)c1cc(F)cc(C(C)C)c1NC(=O)N=S(N)(=O)c1cnc(C(C)(C)O)s1 (stereo not shown) [Example 21, N′-(4-fluoro-2,6-diisopropylphenylcarbamoyl)-2-(2-hydroxypropan-2-yl)thiazole-5-sulfonimidamide] |  | 40 to 200
CC(C)(O)c1ccc(S(N)(=O)=NC(=O)Nc2c3c(c(F)c4c2CCC4)CCC3)c(F)c1 (single isomer, unassigned) [Example 153] | 1000 to 5000 | 
CC(C)(O)c1ncc([S@@](N)(=O)=NC(=O)Nc2c3c(cc4c2CCC4)CCC3)s1 [Example 5] | 200 to 1000 | 
Cc1oc(S(N)(=O)=NC(=O)Nc2c3c(cc4c2CCC4C)CCC3)cc1C(C)(C)O (single isomer, unassigned) [Example 124] | 1000 to 5000 | 
CC(C)(O)c1csc(S(N)(=O)=NC(=O)Nc2c3c(c(Cl)c4c2CCC4)CCC3)c1 (single isomer, unassigned) [Example 89] | 8 to 40 | 
CC(C)c1cc(OC(F)F)cc(C2CC2)c1NC(=O)N=S(N)(=O)c1cnc(C(C)(C)O)s1 (single isomer, unassigned) [Example 102] | 1000 to 5000 | 
CC(C)(O)c1ncc(S(N)(=O)=NC(=O)Nc2c3c(c(OC(F)F)c4c2CCC4)CCC3)s1 (single isomer, unassigned) [Example 116] | 40 to 200 | 

The remaining lines, values ahead:

IC50 [1] [nM] | IC50 (Homo sapiens, THP-1, hTHP-1 assay containing 2% fetal bovine serum) [nM] | Structure (SMILES)
5000 to 30000 |  | CNCc1ccc(S(N)(=O)=NC(=O)Nc2c3c(cc4c2CCC4)CCC3)c(F)c1 (single isomer, unassigned) [Example 404, (S) or (R)-2-fluoro-N′-((1,2,3,5,6,7-hexahydro-s-indacen-4-yl)carbamoyl)-4-((methylamino)methyl)benzenesulfonimidamide]
40 to 200 |  | COC(C)(C)c1ncc(S(N)(=O)=NC(=O)Nc2c3c(cc4c2CCC4)CCC3)s1 (single isomer, unassigned) [Example 388, (R) or (S)-N′-((1,2,3,5,6,7-hexahydro-s-indacen-4-yl)carbamoyl)-2-(2-methoxypropan-2-yl)thiazole-5-sulfonimidamide]
40 to 200 |  | CC(C)(O)c1ncc(S(N)(=O)=NC(=O)Nc2c3c(cc4c2C(=O)CC4)CCC3)s1 (single isomer, unassigned) [Example 364, (R) or (S)-2-(2-Hydroxypropan-2-yl)-N′-((3-oxo-1,2,3,5,6,7-hexahydro-s-indacen-4-yl)carbamoyl)thiazole-5-sulfonimidamide]
8 to 40 |  | CC(C)c1cc(C#N)cc(C(C)C)c1NC(=O)N=S(N)(=O)c1sc(C(C)(C)O)cc1F (single isomer, unassigned) [Example 182]
5000 to 30000 |  | CC(C)c1cc(C#N)cc(C(C)C)c1NC(=O)N=S(N)(=O)c1ccc(C(C)(C)O)s1 (single isomer, unassigned) [Example 187]
200 to 1000 |  | CNCc1ccc(S(N)(=O)=NC(=O)Nc2c3c(cc4c2CCC4)CCC3)c(F)c1 (single isomer, unassigned) [Example 403, (R) or (S)-2-fluoro-N′-((1,2,3,5,6,7-hexahydro-s-indacen-4-yl)carbamoyl)-4-((methylamino)methyl)benzenesulfonimidamide]
8 to 40 |  | CNS(=O)(=NC(=O)Nc1c2c(cc3c1CCC3)CCC2)c1cnc(C(C)(C)O)s1 (single isomer, unassigned) [Example 374, (S) or (R)-N′-((1,2,3,5,6,7-hexahydro-s-indacen-4-yl)carbamoyl)-2-(2-hydroxypropan-2-yl)-N-methylthiazole-5-sulfonimidamide]
200 to 1000 |  | CN1CCCC1c1ccc(S(=N)(=O)NC(=O)Nc2c3c(cc4c2CCC4)CCC3)cc1 (single isomer, unassigned) [Example 409, (R,S) or (S,R) or (S,R) or (R,R)-N-((1,2,3,5,6,7-hexahydro-s-indacen-4-yl)carbamoyl)-4-(1-methylpyrrolidin-2-yl)benzenesulfonimidamide]
